For this test, the target named is USP7 (Homo sapiens, UniProt Q93009). Description: HA-Ub-VS labeling of active DUBs in HCT116 cell lysates. The test is classed as biochemical. Also noted: endogenous in cells; host or cells: HCT116 (inducible USP7 shRNA line) cell lysate. Particulars: NEM 5 mM. The text has this:
The C-terminally modified vinyl sulfone derivative of ubiquitin, UbVS, was clearly helpful for a direct visualization of active DUBs in cells. This tool, which binds covalently to the cysteine active site of deubiquitinating enzymes, was successfully applied to discover and characterize novel ubiquitin/ubiquitin-like proteases and to profile active deubiquitinating enzymes in normal, virus-infected, and malignant cells (Borodovsky et al., Chem Biol 2002, 9, 1149-1159, Hemelaar et al., Mol Cell Biol 2004, 24, 84-95, Ovaa et al., Proc Natl Acad Sci USA 2004 101, 2253-2258).
The HA-Ub-VS probe (Hemagglutin tag-Ubiquitin-Vinyl Sulfone) was used in this study to directly visualize the activity of all deubiquitinating enzymes from cell lysates. This tool was used to evaluate the activity/specificity of our small molecule compounds on USP7 relative to all deubiquitinating enzymes active in physiological conditions.
Inducible USP7 shRNA HCT116 cells (previously treated with or without Doxycycline (2 μg/ml) for 4 days) as well as HEK293 cells were harvested and lysed on ice with a non denaturating buffer containing Tris pH 7.4, 50 mM; NaCl, 150 mM; MgCl2, 5 mM; EDTA, 0.5 mM; DTT, 2 mM; ATP, 2 mM; NP40, 0.5% and glycerol, 10%. Samples were incubated at 4° C. for 1 hour and clarified. Proteins were then quantified by Bradford method (Bio-Rad Protein Assay). 25 μg of proteins from native cell lysates were treated with compounds of examples 14 and 5 (from 100 μM to 3 μM) or with NEM (N-Ethylmaleimide, a thiol-reactive compound, 5 mM) for 2 hours at room temperature. The ubiquitin labeling reaction was initiated by the addition of HA-Ub-VS (8 μg/ml) in labeling buffer (Tris pH 7.6, 50 mM; MgCl2, 5 mM; EDTA, 0.5 mM; DTT, 2 mM; ATP, 2 mM; sucrose, 250 mM) and incubated at room temperature for 30 min. Samples were next heated at 100° C. for 10 minutes and briefly sonicated. They were resolved by SDS-polyacrylamide gel electrophoresis (SDS-PAGE), transferred to a nitrocellulose membrane and probed with antibodies against USP7 (Bethyl Lab, A300-034A), HA (BabCO, MMS-101P), and actin (Sigma, A2066). Horseradish peroxidase (HRP)-conjugated anti-mouse (Jackson Laboratories, 115-035-003) or HRP-conjugated anti-rabbit (Cell Signaling, 7074) antibodies were used as secondary antibodies. Signals were detected by enhanced chemiluminescence (ECL; Amersham) according to the reagent manufacturer's instructions.

SMILES strings stand for the structures.

Chain of USP7 (Q93009 whole entry): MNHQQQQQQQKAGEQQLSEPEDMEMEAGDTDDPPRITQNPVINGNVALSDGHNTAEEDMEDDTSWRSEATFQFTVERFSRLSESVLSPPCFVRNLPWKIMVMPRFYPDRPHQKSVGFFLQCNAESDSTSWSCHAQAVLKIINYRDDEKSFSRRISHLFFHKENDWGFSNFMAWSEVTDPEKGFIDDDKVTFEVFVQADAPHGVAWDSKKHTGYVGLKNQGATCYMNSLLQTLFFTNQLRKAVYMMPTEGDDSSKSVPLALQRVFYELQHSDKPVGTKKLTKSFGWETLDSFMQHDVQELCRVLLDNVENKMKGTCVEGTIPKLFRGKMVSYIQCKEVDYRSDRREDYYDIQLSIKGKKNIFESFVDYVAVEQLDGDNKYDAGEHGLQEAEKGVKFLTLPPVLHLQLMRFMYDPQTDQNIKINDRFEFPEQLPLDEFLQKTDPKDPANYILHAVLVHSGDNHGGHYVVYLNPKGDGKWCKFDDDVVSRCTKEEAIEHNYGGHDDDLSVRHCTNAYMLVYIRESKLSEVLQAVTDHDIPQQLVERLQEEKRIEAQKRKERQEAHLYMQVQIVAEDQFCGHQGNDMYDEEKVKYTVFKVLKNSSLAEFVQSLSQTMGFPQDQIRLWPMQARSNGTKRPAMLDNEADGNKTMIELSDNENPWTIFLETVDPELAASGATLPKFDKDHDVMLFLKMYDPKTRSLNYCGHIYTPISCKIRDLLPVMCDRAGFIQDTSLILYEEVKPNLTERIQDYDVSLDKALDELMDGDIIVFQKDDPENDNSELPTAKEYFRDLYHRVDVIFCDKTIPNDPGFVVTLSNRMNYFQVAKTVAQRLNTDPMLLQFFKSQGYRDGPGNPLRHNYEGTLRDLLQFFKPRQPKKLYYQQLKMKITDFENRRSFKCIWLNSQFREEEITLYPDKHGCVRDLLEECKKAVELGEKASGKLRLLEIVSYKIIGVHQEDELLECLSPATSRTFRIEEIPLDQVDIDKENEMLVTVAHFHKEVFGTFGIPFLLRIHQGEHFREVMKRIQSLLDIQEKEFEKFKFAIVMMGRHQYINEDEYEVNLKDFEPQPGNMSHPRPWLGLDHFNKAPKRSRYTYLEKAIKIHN

Consider `CCN1C(=O)C=CC1=O` [NEM, N-Ethylmaleimide, reference compound], for which the “HA-Ub-VS labeling of active DUBs” value was “inhibited”.

These data come from US20110177105A1, “Novel Selective Inhibitors of Ubiquitin Specific Protease 7, the Pharmaceutical Compositions Thereof and Their Therapeutic Applications” (priority 2010, published 2011).
